Data: patent US20220119354A1, “DIAMINO-SUBSTITUTED PYRIDINES AND PYRIMIDINES AS HERBICIDES” (FMC Corporation, priority 2019, published 2022)

Key:
Assay type in all cases: in vivo
[1] = system: wheat (Triticum aestivum); assay: Test A postemergence, wheat; conditions: 0 to 100 scale
Outline: (§1)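 Greenhouse pot test, loam/sand soil. Pre: directed soil spray at planting; post: foliar spray at 1–2 leaf stage (2–10 cm). Chemical in non-phytotoxic solvent + surfactant. Visual rating ~10 d, 0 = no effect, 100 = complete control.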

rice (Oryza sativa) = assay: Test B flooded paddy test, rice; conditions: Flood, 250 g ai/ha, applied to paddy water, 2-leaf stage, visual evaluation after 13 to 15 d
Outline: (§2)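 Pots flooded to 3 cm above the soil when treated, with test compound added straight to the water and the flood maintained. Treated plants were at the 2-leaf stage and stayed 13–15 d in greenhouse. Response versus untreated controls scored visually from 0 (no effect) to 100 (complete control).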

kochia (Kochia scoparia) [2] = assay: Test A postemergence, kochia; conditions: 0 to 100 scale
Outline: as §1

[3] = system: pigweed (Amaranthus retroflexus); assay: Test A postemergence, pigweed; conditions: 0 to 100 scale
Outline: as §1

[4] = system: sedge, umbrella (small-flower umbrella sedge, Cyperus difformis); assay: Test B flooded paddy test, umbrella sedge; conditions: Flood, 250 g ai/ha, applied to paddy water, 2-leaf stage, visual evaluation after 13 to 15 d
Outline: as §2

[5] = system: blackgrass (Alopecurus myosuroides); assay: Test A postemergence, blackgrass; conditions: 0 to 100 scale
Outline: as §1

[6] = system: ryegrass, Italian (Lolium multiflorum); assay: Test A postemergence, Italian ryegrass; conditions: 0 to 100 scale
Outline: as §1

[7] = system: ducksalad (Heteranthera limosa); assay: Test B flooded paddy test, ducksalad; conditions: Flood, 250 g ai/ha, applied to paddy water, 2-leaf stage, visual evaluation after 13 to 15 d
Outline: as §2

[8] = system: foxtail, giant (Setaria faberii); assay: Test A preemergence, giant foxtail; conditions: 0 to 100 scale; for Foxtail, Giant plant response rating: 0 is no effect, 100 is complete control
Outline: as §1

[9] = system: ragweed (common ragweed, Ambrosia elatior); assay: Test A preemergence, ragweed; conditions: 0 to 100 scale; for Ragweed plant response rating: 0 is no effect, 100 is complete control
Outline: as §1

kochia (Kochia scoparia) [10] = assay: Test A preemergence, kochia; conditions: 0 to 100 scale; for Kochia plant response rating: 0 is no effect, 100 is complete control
Outline: as §1

[11] = system: barnyardgrass (Echinochloa crus-galli); assay: Test B flooded paddy test, barnyardgrass; conditions: Flood, 250 g ai/ha, applied to paddy water, 2-leaf stage, visual evaluation after 13 to 15 d
Outline: as §2

[12] = system: barnyardgrass (Echinochloa crus-galli); assay: Test A postemergence, barnyardgrass; conditions: 0 to 100 scale
Outline: as §1

[13] = system: galium (catchweed bedstraw, Galium aparine); assay: Test A postemergence, galium; conditions: 0 to 100 scale
Outline: as §1

[14] = system: ryegrass, Italian (Lolium multiflorum); assay: Test A preemergence, Italian ryegrass; conditions: 0 to 100 scale; for Ryegrass, Italian plant response rating: 0 is no effect, 100 is complete control
Outline: as §1

[15] = system: pigweed (Amaranthus retroflexus); assay: Test A preemergence, pigweed; conditions: 0 to 100 scale; for Pigweed plant response rating: 0 is no effect, 100 is complete control
Outline: as §1

corn (Zea mays) = assay: Test A postemergence, corn; conditions: 0 to 100 scale
Outline: as §1

[16] = system: foxtail, giant (Setaria faberii); assay: Test A postemergence, giant foxtail; conditions: 0 to 100 scale
Outline: as §1

[17] = system: barnyardgrass (Echinochloa crus-galli); assay: Test A preemergence, barnyardgrass; conditions: 0 to 100 scale; for Barnyardgrass plant response rating: 0 is no effect, 100 is complete control
Outline: as §1

[18] = system: ragweed (common ragweed, Ambrosia elatior); assay: Test A postemergence, ragweed; conditions: 0 to 100 scale
Outline: as §1

[19] = 125 g ai/ha, 0 no effect, 100 complete control
[20] = 500 g ai/ha, 0 no effect, 100 complete control

`C[C@H](Nc1nc(N)c(C(F)(F)F)c(C(F)(F)F)n1)c1cc2ccccc2s1` [Compound 60] was tested, and the “Plant response rating, Wheat” value [1, 19] was 0, the “Plant response rating, Wheat” value [1, 20] was 0 and the “Plant response rating, Rice (0 to 100 scale, 0 is no effect, 100 is complete control)” value (rice (Oryza sativa)) was 0. For the same molecule, the “Plant response rating, Kochia” value (kochia (Kochia scoparia) [2]; [19]) was 30, the “Plant response rating, Kochia” value (kochia (Kochia scoparia) [2]; [20]) was 100 and the “Plant response rating, Pigweed” value [3, 19] was 50. For the same molecule, the “Plant response rating, Pigweed” value [3, 20] was 90, the “Plant response rating, Sedge, Umbrella (0 to 100 scale, 0 is no effect, 100 is complete control)” value [4] was 0 and the “Plant response rating, Blackgrass” value [5, 19] was 0. For the same molecule, the “Plant response rating, Blackgrass” value [5, 20] was 20, the “Plant response rating, Ryegrass, Italian” value [6, 19] was 0 and the “Plant response rating, Ryegrass, Italian” value [6, 20] was 0. The “Plant response rating, Ducksalad (0 to 100 scale, 0 is no effect, 100 is complete control)” value [7] was 0, the “Foxtail, Giant plant response rating” value ([8]; 125 g ai/ha) was 0 and the “Foxtail, Giant plant response rating” value ([8]; 500 g ai/ha) was 0. The “Ragweed plant response rating” value ([9]; 125 g ai/ha) was 0, the “Ragweed plant response rating” value ([9]; 500 g ai/ha) was 0 and the “Kochia plant response rating” value (kochia (Kochia scoparia) [10]; 125 g ai/ha) was 0. For the same molecule, the “Kochia plant response rating” value (kochia (Kochia scoparia) [10]; 500 g ai/ha) was 0, the “Plant response rating, Barnyardgrass (0 to 100 scale, 0 is no effect, 100 is complete control)” value [11] was 0 and the “Plant response rating, Barnyardgrass” value [12, 19] was 0. The “Plant response rating, Barnyardgrass” value [12, 20] was 50, the “Plant response rating, Galium” value [13, 19] was 30 and the “Plant response rating, Galium” value [13, 20] was 40. For the same molecule, the “Ryegrass, Italian plant response rating” value ([14]; 125 g ai/ha) was 0, the “Ryegrass, Italian plant response rating” value ([14]; 500 g ai/ha) was 20 and the “Pigweed plant response rating” value ([15]; 125 g ai/ha) was 0. The “Pigweed plant response rating” value ([15]; 500 g ai/ha) was 0, the “Plant response rating, Corn” value (corn (Zea mays); [19]) was 0 and the “Plant response rating, Corn” value (corn (Zea mays); [20]) was 0. For the same molecule, the “Plant response rating, Foxtail, Giant” value [16, 19] was 20, the “Plant response rating, Foxtail, Giant” value [16, 20] was 50 and the “Barnyardgrass plant response rating” value ([17]; 125 g ai/ha) was 0. For the same molecule, the “Barnyardgrass plant response rating” value ([17]; 500 g ai/ha) was 50, the “Plant response rating, Ragweed” value [18, 19] was 20 and the “Plant response rating, Ragweed” value [18, 20] was 60.

In the case of `CC[C@H](Nc1ncc(C(F)(F)F)c(N)n1)c1coc2ccccc12` [Compound 81], the “Plant response rating, Wheat” value [1, 19] is reported as 0, the “Plant response rating, Wheat” value [1, 20] is reported as 0 and the “Plant response rating, Rice (0 to 100 scale, 0 is no effect, 100 is complete control)” value (rice (Oryza sativa)) is reported as 0. For the same molecule, the “Plant response rating, Kochia” value (kochia (Kochia scoparia) [2]; [19]) was 20, the “Plant response rating, Kochia” value (kochia (Kochia scoparia) [2]; [20]) was 40 and the “Plant response rating, Pigweed” value [3, 19] was 0. The “Plant response rating, Pigweed” value [3, 20] was 80, the “Plant response rating, Sedge, Umbrella (0 to 100 scale, 0 is no effect, 100 is complete control)” value [4] was 0 and the “Plant response rating, Blackgrass” value [5, 19] was 0. For the same molecule, the “Plant response rating, Blackgrass” value [5, 20] was 0, the “Plant response rating, Ryegrass, Italian” value [6, 19] was 0 and the “Plant response rating, Ryegrass, Italian” value [6, 20] was 0. The “Plant response rating, Ducksalad (0 to 100 scale, 0 is no effect, 100 is complete control)” value [7] was 0, the “Foxtail, Giant plant response rating” value ([8]; 125 g ai/ha) was 0 and the “Foxtail, Giant plant response rating” value ([8]; 500 g ai/ha) was 20. The “Ragweed plant response rating” value ([9]; 125 g ai/ha) was 0, the “Ragweed plant response rating” value ([9]; 500 g ai/ha) was 70 and the “Kochia plant response rating” value (kochia (Kochia scoparia) [10]; 125 g ai/ha) was 0. For the same molecule, the “Kochia plant response rating” value (kochia (Kochia scoparia) [10]; 500 g ai/ha) was 20, the “Plant response rating, Barnyardgrass (0 to 100 scale, 0 is no effect, 100 is complete control)” value [11] was 0 and the “Plant response rating, Barnyardgrass” value [12, 19] was 0. The “Plant response rating, Barnyardgrass” value [12, 20] was 0, the “Plant response rating, Galium” value [13, 19] was 0 and the “Plant response rating, Galium” value [13, 20] was 30. The “Ryegrass, Italian plant response rating” value ([14]; 125 g ai/ha) was 0, the “Ryegrass, Italian plant response rating” value ([14]; 500 g ai/ha) was 60 and the “Pigweed plant response rating” value ([15]; 125 g ai/ha) was 0. For the same molecule, the “Pigweed plant response rating” value ([15]; 500 g ai/ha) was 10, the “Plant response rating, Corn” value (corn (Zea mays); [19]) was 0 and the “Plant response rating, Corn” value (corn (Zea mays); [20]) was 0. The “Plant response rating, Foxtail, Giant” value [16, 19] was 0, the “Plant response rating, Foxtail, Giant” value [16, 20] was 10 and the “Barnyardgrass plant response rating” value ([17]; 125 g ai/ha) was 0. For the same molecule, the “Barnyardgrass plant response rating” value ([17]; 500 g ai/ha) was 0, the “Plant response rating, Ragweed” value [18, 19] was 0 and the “Plant response rating, Ragweed” value [18, 20] was 20.

For `CC(COc1cccc(F)c1)Nc1ncc(C(F)(F)F)c(N)n1` (stereo not drawn) [Compound 37], the “Plant response rating, Wheat” value ([1]; 125 g ai/ha) was 0, the “Plant response rating, Wheat” value ([1]; 500 g ai/ha) was 0 and the “Plant response rating, Rice (0 to 100 scale, 0 is no effect, 100 is complete control)” value (rice (Oryza sativa)) was 0. The “Plant response rating, Kochia” value (kochia (Kochia scoparia) [2]; 125 g ai/ha) was 0, the “Plant response rating, Kochia” value (kochia (Kochia scoparia) [2]; 500 g ai/ha) was 0 and the “Plant response rating, Pigweed” value ([3]; 125 g ai/ha) was 0. The “Plant response rating, Pigweed” value ([3]; 500 g ai/ha) was 40, the “Plant response rating, Sedge, Umbrella (0 to 100 scale, 0 is no effect, 100 is complete control)” value [4] was 0 and the “Plant response rating, Blackgrass” value ([5]; 125 g ai/ha) was 0. For the same molecule, the “Plant response rating, Blackgrass” value ([5]; 500 g ai/ha) was 0, the “Plant response rating, Ryegrass, Italian” value ([6]; 125 g ai/ha) was 0 and the “Plant response rating, Ryegrass, Italian” value ([6]; 500 g ai/ha) was 0. The “Plant response rating, Ducksalad (0 to 100 scale, 0 is no effect, 100 is complete control)” value [7] was 0, the “Foxtail, Giant plant response rating” value ([8]; 125 g ai/ha) was 0 and the “Plant response rating, Foxtail, Giant” value ([8]; 500 g ai/ha) was 0. The “Ragweed plant response rating” value ([9]; 125 g ai/ha) was 0, the “Plant response rating, Ragweed” value ([9]; 500 g ai/ha) was 100 and the “Kochia plant response rating” value (kochia (Kochia scoparia) [10]; 125 g ai/ha) was 0. For the same molecule, the “Plant response rating, Kochia” value (kochia (Kochia scoparia) [10]; 500 g ai/ha) was 0, the “Plant response rating, Barnyardgrass (0 to 100 scale, 0 is no effect, 100 is complete control)” value [11] was 0 and the “Plant response rating, Barnyardgrass” value ([12]; 125 g ai/ha) was 0. The “Plant response rating, Barnyardgrass” value ([12]; 500 g ai/ha) was 0, the “Plant response rating, Galium” value ([13]; 125 g ai/ha) was 20 and the “Plant response rating, Galium” value ([13]; 500 g ai/ha) was 40. For the same molecule, the “Ryegrass, Italian plant response rating” value ([14]; 125 g ai/ha) was 0, the “Plant response rating, Ryegrass, Italian” value ([14]; 500 g ai/ha) was 0 and the “Pigweed plant response rating” value ([15]; 125 g ai/ha) was 50. The “Plant response rating, Pigweed” value ([15]; 500 g ai/ha) was 70, the “Plant response rating, Corn” value (corn (Zea mays); 125 g ai/ha) was 0 and the “Plant response rating, Corn” value (corn (Zea mays); 500 g ai/ha) was 0. For the same molecule, the “Plant response rating, Foxtail, Giant” value ([16]; 125 g ai/ha) was 0, the “Plant response rating, Foxtail, Giant” value ([16]; 500 g ai/ha) was 0 and the “Barnyardgrass plant response rating” value ([17]; 125 g ai/ha) was 0. For the same molecule, the “Plant response rating, Barnyardgrass” value ([17]; 500 g ai/ha) was 0, the “Plant response rating, Ragweed” value ([18]; 125 g ai/ha) was 0 and the “Plant response rating, Ragweed” value ([18]; 500 g ai/ha) was 0.
